Measured values published in ChEMBL document CHEMBL1136175, “Synthesis and antimycobacterial activity of capuramycin analogues. Part 2: acylated derivatives of capuramycin-related compounds” (Bioorg Med Chem Lett, 2003).
Values after ≈ are worked out from the molar mass of the structure shown.

Experiments:
[1] = test system: Mycobacterium intracellulare; assay: Antimycobacterial activity against Mycobacterium intracellular ATCC 1954 E-3; assay type: functional
Mycobacterium kansasii = assay: Antimycobacterial activity against Mycobacterium kansasii ATCC 12478; assay type: functional
[2] = test system: Mycolicibacterium smegmatis; assay: Antimycobacterial activity was determined against Mycobacterium smegmatis SANK75075; assay type: functional
[3] = target: T1, Phospho-N-acetylmuramoyl-pentapeptide-transferase (Escherichia coli K-12, UniProt P0A6W3); assay: Inhibitory concentration required against Translocase I
T1 sequence (P0A6W3 whole entry): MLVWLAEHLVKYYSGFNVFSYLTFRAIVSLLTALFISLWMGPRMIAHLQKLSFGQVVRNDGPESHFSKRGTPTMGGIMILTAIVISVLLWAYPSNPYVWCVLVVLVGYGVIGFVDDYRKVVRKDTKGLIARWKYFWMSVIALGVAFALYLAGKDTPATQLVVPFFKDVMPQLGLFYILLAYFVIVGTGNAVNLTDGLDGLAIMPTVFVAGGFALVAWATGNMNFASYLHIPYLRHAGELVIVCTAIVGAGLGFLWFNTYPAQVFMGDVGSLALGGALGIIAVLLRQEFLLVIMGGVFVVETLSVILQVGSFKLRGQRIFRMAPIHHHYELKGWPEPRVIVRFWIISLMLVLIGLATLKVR

Mycobacterium avium = assay: Antimycobacterial activity against Mycobacterium avium NIHJ1605; assay type: functional
[4] = target: T1, Phospho-N-acetylmuramoyl-pentapeptide-transferase; assay: Inhibitory concentration against translocase-I

Row | SMILES | MIC [1] [µg/mL] | MIC (Mycobacterium kansasii) [µg/mL] | MIC [2] [µg/mL] | IC50 [3] [nM] | MIC (Mycobacterium avium) [µg/mL] | IC50 [4] [nM]
1 | CCCCCCCCCCCCCCCCOC(=O)O[C@@H]1[C@H](OC)[C@@H]([C@@H](O[C@H]2OC(C(=O)N[C@H]3CCC[C@@H](C)NC3=O)=C[C@H](O)[C@@H]2O)C(N)=O)O[C@H]1n1ccc(=O)[nH]c1=O | 2 (≈ 2.35 µM) | 8 (≈ 9.39 µM) | > 100 | > 2930 | 0.5 (≈ 0.587 µM) | –
2 | CCCCCCCOC(=O)O[C@@H]1[C@H](OC)[C@@H]([C@@H](O[C@H]2OC(C(=O)N[C@H]3CCC[C@@H](C)NC3=O)=C[C@H](O)[C@@H]2O)C(N)=O)O[C@H]1n1ccc(=O)[nH]c1=O | 1 (≈ 1.38 µM) | 2 (≈ 2.76 µM) | 50 (≈ 68.9 µM) | 276 | 0.25 (≈ 0.344 µM) | –
3 | CCCCCCCCCCCC(=O)O[C@@H]1[C@H](OC)[C@@H]([C@@H](O[C@H]2OC(C(=O)Nc3ccccc3)=C[C@H](O)[C@@H]2O)C(N)=O)O[C@H]1n1ccc(=O)[nH]c1=O | 4 (≈ 5.58 µM) | 8 (≈ 11.2 µM) | 6.25 (≈ 8.72 µM) | > 3490 | 1 (≈ 1.4 µM) | –
4 | CCCCCCCCCC(=O)O[C@@H]1[C@H](OC)[C@@H]([C@@H](O[C@H]2OC(C(=O)Nc3ccccc3)=C[C@H](O)[C@@H]2O)C(N)=O)O[C@H]1n1ccc(=O)[nH]c1=O | 1 (≈ 1.45 µM) | 2 (≈ 2.9 µM) | 6.25 (≈ 9.07 µM) | 2760 | 0.5 (≈ 0.726 µM) | –
5 | CCCCCCCCCC(=O)O[C@@H]1[C@H](OC)[C@@H]([C@@H](O[C@H]2OC(C(=O)N[C@H]3CCCCNC3=O)=C[C@H](O)[C@@H]2O)C(N)=O)O[C@H]1n1ccc(=O)[nH]c1=O | 0.25 (≈ 0.345 µM) | 1 (≈ 1.38 µM) | 12.5 (≈ 17.3 µM) | – | 0.5 (≈ 0.691 µM) | 414
6 | CCCCCCC(=O)O[C@@H]1[C@H](OC)[C@@H]([C@@H](O[C@H]2OC(C(=O)N[C@H]3CCCCNC3=O)=C[C@H](O)[C@@H]2O)C(N)=O)O[C@H]1n1ccc(=O)[nH]c1=O | – | – | 25 (≈ 36.7 µM) | – | – | 58.7
7 | CCCCCCCCOC(=O)O[C@@H]1[C@H](OC)[C@@H]([C@@H](O[C@H]2OC(C(=O)N[C@H]3CCC[C@@H](C)NC3=O)=C[C@H](O)[C@@H]2O)C(N)=O)O[C@H]1n1ccc(=O)[nH]c1=O | 0.5 (≈ 0.676 µM) | 2 (≈ 2.7 µM) | 25 (≈ 33.8 µM) | 676 | 0.25 (≈ 0.338 µM) | –
8 | CCCCCCCCCCCCCCCC(=O)O[C@@H]1[C@H](OC)[C@@H]([C@@H](O[C@H]2OC(C(=O)N[C@H]3CCC[C@@H](C)NC3=O)=C[C@H](O)[C@@H]2O)C(N)=O)O[C@H]1n1ccc(=O)[nH]c1=O | 0.25 (≈ 0.304 µM) | 4 (≈ 4.87 µM) | 6.25 (≈ 7.6 µM) | 523 | < 0.063 | –
9 | CCCCCCCCCCCC(=O)O[C@@H]1[C@H](OC)[C@@H]([C@@H](O[C@H]2OC(C(=O)N[C@H]3CCC[C@@H](C)NC3=O)=C[C@H](O)[C@@H]2O)C(N)=O)O[C@H]1n1ccc(=O)[nH]c1=O | < 0.063 | 0.5 (≈ 0.653 µM) | 1.56 (≈ 2.04 µM) | 2870 | < 0.063 | –
10 | CCCCCCCCO[C@@H]1[C@H](OC)[C@@H]([C@@H](O[C@H]2OC(C(=O)N[C@H]3CCC[C@@H](C)NC3=O)=C[C@H](O)[C@@H]2O)C(N)=O)O[C@H]1n1ccc(=O)[nH]c1=O | 2 (≈ 2.87 µM) | > 32 | 50 (≈ 71.9 µM) | 216 | 16 (≈ 23 µM) | –
11 | CO[C@H]1[C@@H](O)[C@H](n2ccc(=O)[nH]c2=O)O[C@@H]1[C@@H](O[C@H]1OC(C(=O)N[C@H]2CCCCNC2=O)=C[C@H](O)[C@@H]1O)C(N)=O [CAPURAMYCIN] | 8 (≈ 14 µM) | 8 (≈ 14 µM) | 12.5 (≈ 21.9 µM) | – | 8 (≈ 14 µM) | 17.6
12 | CCCCCCCC(=O)O[C@@H]1[C@H](OC)[C@@H]([C@@H](O[C@H]2OC(C(=O)N[C@H]3CCC[C@@H](C)NC3=O)=C[C@H](O)[C@@H]2O)C(N)=O)O[C@H]1n1ccc(=O)[nH]c1=O | 1 (≈ 1.41 µM) | 1 (≈ 1.41 µM) | 25 (≈ 35.2 µM) | 268 | 2 (≈ 2.82 µM) | –
13 | CCCCCC(=O)O[C@@H]1[C@H](OC)[C@@H]([C@@H](O[C@H]2OC(C(=O)N[C@H]3CCC[C@@H](C)NC3=O)=C[C@H](O)[C@@H]2O)C(N)=O)O[C@H]1n1ccc(=O)[nH]c1=O | 2 (≈ 2.93 µM) | 2 (≈ 2.93 µM) | 50 (≈ 73.3 µM) | 63.1 | 16 (≈ 23.5 µM) | –
14 | CCCCC(=O)O[C@@H]1[C@H](OC)[C@@H]([C@@H](O[C@H]2OC(C(=O)N[C@H]3CCC[C@@H](C)NC3=O)=C[C@H](O)[C@@H]2O)C(N)=O)O[C@H]1n1ccc(=O)[nH]c1=O | 2 (≈ 3 µM) | 16 (≈ 24 µM) | 100 (≈ 150 µM) | 35.9 | 32 (≈ 47.9 µM) | –
15 | CCCCCCC(=O)O[C@@H]1[C@H](OC)[C@@H]([C@@H](O[C@H]2OC(C(=O)Nc3ccccc3)=C[C@H](O)[C@@H]2O)C(N)=O)O[C@H]1n1ccc(=O)[nH]c1=O | 1 (≈ 1.55 µM) | 0.5 (≈ 0.773 µM) | 25 (≈ 38.7 µM) | 371 | 0.5 (≈ 0.773 µM) | –
16 | CCCCCCCCC(=O)O[C@@H]1[C@H](OC)[C@@H]([C@@H](O[C@H]2OC(C(=O)Nc3ccccc3)=C[C@H](O)[C@@H]2O)C(N)=O)O[C@H]1n1ccc(=O)[nH]c1=O | 1 (≈ 1.48 µM) | 1 (≈ 1.48 µM) | 12.5 (≈ 18.5 µM) | 1040 | 0.25 (≈ 0.371 µM) | –
17 | CCCCCCCCC(=O)O[C@@H]1[C@H](OC)[C@@H]([C@@H](O[C@H]2OC(C(=O)N[C@H]3CCCCNC3=O)=C[C@H](O)[C@@H]2O)C(N)=O)O[C@H]1n1ccc(=O)[nH]c1=O | – | – | 12.5 (≈ 17.6 µM) | – | – | 254
18 | CCCCCO[C@@H]1[C@H](OC)[C@@H]([C@@H](O[C@H]2OC(C(=O)N[C@H]3CCC[C@@H](C)NC3=O)=C[C@H](O)[C@@H]2O)C(N)=O)O[C@H]1n1ccc(=O)[nH]c1=O | 4 (≈ 6.12 µM) | > 32 | 100 (≈ 153 µM) | 76.5 | > 32 | –
19 | CCCCCCC(=O)O[C@@H]1[C@H](OC)[C@@H]([C@@H](O[C@H]2OC(C(=O)N[C@H]3CCC[C@@H](C)NC3=O)=C[C@H](O)[C@@H]2O)C(N)=O)O[C@H]1n1ccc(=O)[nH]c1=O | 1 (≈ 1.44 µM) | 2 (≈ 2.87 µM) | 50 (≈ 71.9 µM) | 64.7 | 4 (≈ 5.75 µM) | –
20 | CCCCCCCO[C@@H]1[C@H](OC)[C@@H]([C@@H](O[C@H]2OC(C(=O)N[C@H]3CCC[C@@H](C)NC3=O)=C[C@H](O)[C@@H]2O)C(N)=O)O[C@H]1n1ccc(=O)[nH]c1=O | 4 (≈ 5.87 µM) | 32 (≈ 46.9 µM) | 100 (≈ 147 µM) | 80.7 | 32 (≈ 46.9 µM) | –
